As a reminder, the AUC(0-inf) is the area under the concentration-time curve extrapolated to infinity. Read a high AUC(0-inf) as high exposure. In general, Cmax refers to the maximum level reached in the sampled fluid or tissue. The half-life is the time needed for the level to fall by half in the phase considered. Higher therefore signals slow decline.

Read-outs that look alike come from different tables or passages of the source.

For data set [1] the following is noted: for Tmax, median: healthy subjects, 18.
Experimental: (§1) An open-label, single-dose and multiple-dose, two-period, two-treatment single-sequence drug-drug interaction study was conducted. All subjects received Treatment A during Period 1 and Treatment B during Period 2.
(§2) Samples were stored in polypropylene tubes and kept frozen at approximately −20° C. prior to analysis. A 150-μL matrix aliquot was fortified with 20 μL of 40.0 ng/mL internal standard working solution. Analytes were isolated using an Isolute SLE+ (200-mg) supported liquid extraction 96-well plate and eluted with 800 μL of methylene chloride. The eluate was evaporated under a nitrogen stream at approximately 45° C., and the remaining residue was reconstituted with 250 μL of 90:10:40:0.7 water/methanol/acetonitrile/1.0 M ammonium acetate, v/v/v/v. The final extract was analyzed via HPLC with column-switching and MS/MS detection using positive ion electrospray. Extracts were analyzed by HPLC MS/MS using positive ion electrospray.
A further data set in a line: clinical. The note with it: human, plasma, po, 0.25 mg.
Another data set addresses β3-AR (Homo sapiens, UniProt P13945). The note with it: cell based in vitro assays; cited from earlier work.
The next data set deals with cytochrome P450. The note with it: cited from earlier work.

β3-AR, sequence (P13945 whole entry): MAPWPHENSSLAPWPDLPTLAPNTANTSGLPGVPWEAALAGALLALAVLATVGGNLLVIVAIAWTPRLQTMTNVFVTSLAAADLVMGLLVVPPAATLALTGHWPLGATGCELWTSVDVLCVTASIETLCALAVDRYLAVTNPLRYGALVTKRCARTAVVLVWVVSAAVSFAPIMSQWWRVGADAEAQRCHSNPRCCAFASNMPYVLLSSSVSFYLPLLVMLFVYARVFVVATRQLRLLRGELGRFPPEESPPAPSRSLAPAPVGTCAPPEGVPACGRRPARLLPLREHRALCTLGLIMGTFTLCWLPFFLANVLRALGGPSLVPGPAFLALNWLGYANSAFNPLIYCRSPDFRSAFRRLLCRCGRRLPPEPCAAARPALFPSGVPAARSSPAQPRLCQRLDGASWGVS
Experimental for clinical: as §1, §2

In the case of `C[C@H]1O[C@@H](O[C@H]2[C@@H](O)C[C@H](O[C@H]3[C@@H](O)C[C@H](O[C@H]4CC[C@@]5(C)[C@H](CC[C@@H]6[C@@H]5C[C@@H](O)[C@]5(C)[C@@H](C7=CC(=O)OC7)CC[C@]65O)C4)O[C@@H]3C)O[C@@H]2C)C[C@H](O)[C@@H]1O` [Digoxin], the “Tmax, median” value in data set [1] (Digoxin 0.25 mg × 1 dose with vibegron (150 mg × 1 dose + 100 mg × 5 doses)) was found to be 1.00. Moreover, the “Tmax, median” value in data set [1] (Digoxin alone, 0.25 mg single dose oral tablet) amounted to 1.00. Besides, the “change of half-life (T1/2)” value in data set [1] (group receiving digoxin+vibegron compared to group receiving digoxin alone) was “increase”. Also, in the data set “clinical”, the AUC(0-inf) amounted to 17.2 ng·h/mL, the peak level (Cmax) was 1.24 ng/mL and the half-life was 2210 min.

On to `O=C(Nc1ccc(C[C@@H]2CC[C@H]([C@H](O)c3ccccc3)N2)cc1)[C@@H]1CCc2nccc(=O)n21` [Vibegron, (6S)—N-[4-[[(2S,5R)-5-[(R)-hydroxy(phenyl)methyl]pyrrolidin-2-yl]methyl]phenyl]-4-oxo-7,8-dihydro-6H-pyrrolo[1,2-a]pyrimidine-6-carboxamide], for which, at β3-AR, the “selectivity for activation of β3-AR over β2-AR and β1-AR” value is reported as > 9,000 fold. Besides, in the data set on cytochrome P450, the “inhibitor of major enzymes produced from the cytochrome P450 genes” value is given as “not an inhibitor”.

The values above are taken from patent US20240050457A1 (UROVANT SCIENCES GMBH, priority 2020, published 2024).
